Measured values: PubChem BioAssay (NCI)
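Assay format: 96-well plates, 48-hour exposure. GI50 = concentration required for 50% inhibition of growth. Definition used: TGI = concentration required for complete inhibition of growth.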

Key:
Assay in all cases: DTP human tumour cell line panel, 48 h
HCT-116 colon = tested on: HCT-116 colon
BT-549 breast = tested on: BT-549 breast
HOP-92 NSCLC = tested on: HOP-92 NSCLC
CCRF-CEM leukemia = tested on: CCRF-CEM leukemia
RXF 393 renal = tested on: RXF 393 renal
OVCAR-4 ovarian = tested on: OVCAR-4 ovarian
HL-60(TB) leukemia = tested on: HL-60(TB) leukemia
SF-295 CNS = tested on: SF-295 CNS
LOX IMVI melanoma = tested on: LOX IMVI melanoma
MCF7 breast = tested on: MCF7 breast
SK-MEL-28 melanoma = tested on: SK-MEL-28 melanoma
CAKI-1 renal = tested on: CAKI-1 renal
U251 CNS = tested on: U251 CNS
NCI-H23 lung = tested on: NCI-H23 lung
HCC-2998 colon = tested on: HCC-2998 colon
SK-MEL-2 melanoma = tested on: SK-MEL-2 melanoma
SW-620 colon = tested on: SW-620 colon
786-0 renal = tested on: 786-0 renal
SK-MEL-5 melanoma = tested on: SK-MEL-5 melanoma
HT29 colon = tested on: HT29 colon
M14 melanoma = tested on: M14 melanoma
OVCAR-5 ovarian = tested on: OVCAR-5 ovarian
SF-539 CNS = tested on: SF-539 CNS
MDA-MB-435 = tested on: MDA-MB-435
NCI-H522 lung = tested on: NCI-H522 lung
COLO 205 colon = tested on: COLO 205 colon
OVCAR-8 ovarian = tested on: OVCAR-8 ovarian

Q: Which results are given for `N#Cc1c(NC(=O)c2cccc3ccccc23)sc2c1CCCC2`?
A: GI50 (HCT-116 colon): 67.3 nM; TGI (HCT-116 colon): 5370 nM; GI50 (BT-549 breast): 144 nM; TGI (BT-549 breast): > 20900 nM; GI50 (HOP-92 NSCLC): 457 nM; TGI (HOP-92 NSCLC): > 25000 nM; GI50 (CCRF-CEM leukemia): 42.2 nM; TGI (CCRF-CEM leukemia): > 25000 nM; GI50 (RXF 393 renal): 33.1 nM; TGI (RXF 393 renal): 121 nM; GI50 (OVCAR-4 ovarian): 190 nM; TGI (OVCAR-4 ovarian): > 25000 nM; GI50 (HL-60(TB) leukemia): 54.5 nM; GI50 (SF-295 CNS): 10.9 nM; TGI (SF-295 CNS): > 25000 nM; GI50 (LOX IMVI melanoma): 62.5 nM; TGI (LOX IMVI melanoma): > 25000 nM; GI50 (MCF7 breast): 90 nM; TGI (MCF7 breast): > 25000 nM; GI50 (SK-MEL-28 melanoma): 40.1 nM; TGI (SK-MEL-28 melanoma): > 25000 nM; GI50 (CAKI-1 renal): 63.7 nM; TGI (CAKI-1 renal): > 25000 nM; GI50 (U251 CNS): 62.2 nM; TGI (U251 CNS): > 25000 nM; GI50 (NCI-H23 lung): 87.4 nM; TGI (NCI-H23 lung): > 25000 nM; GI50 (HCC-2998 colon): 75.1 nM; TGI (HCC-2998 colon): > 7900 nM; GI50 (SK-MEL-2 melanoma): 137 nM; TGI (SK-MEL-2 melanoma): > 25000 nM; GI50 (SW-620 colon): 24.5 nM; TGI (SW-620 colon): > 25000 nM; GI50 (786-0 renal): 101 nM; TGI (786-0 renal): > 25000 nM; GI50 (SK-MEL-5 melanoma): 84.4 nM; TGI (SK-MEL-5 melanoma): 1620 nM; GI50 (HT29 colon): 71.6 nM; TGI (HT29 colon): 224 nM; GI50 (M14 melanoma): 24.9 nM; TGI (M14 melanoma): 116 nM; GI50 (OVCAR-5 ovarian): 139 nM; TGI (OVCAR-5 ovarian): > 25000 nM; GI50 (SF-539 CNS): 27.4 nM; TGI (SF-539 CNS): > 25000 nM; GI50 (MDA-MB-435): 6.36 nM; TGI (MDA-MB-435): 19.3 nM; GI50 (NCI-H522 lung): 24 nM; TGI (NCI-H522 lung): 259 nM; GI50 (COLO 205 colon): 72.3 nM; TGI (COLO 205 colon): 193 nM; GI50 (OVCAR-8 ovarian): 91.8 nM; TGI (OVCAR-8 ovarian): > 25000 nM
